Target: T1, Ubiquitin-like modifier-activating enzyme 1 (Homo sapiens, UniProt P22314)
T1 sequence (P22314 whole entry): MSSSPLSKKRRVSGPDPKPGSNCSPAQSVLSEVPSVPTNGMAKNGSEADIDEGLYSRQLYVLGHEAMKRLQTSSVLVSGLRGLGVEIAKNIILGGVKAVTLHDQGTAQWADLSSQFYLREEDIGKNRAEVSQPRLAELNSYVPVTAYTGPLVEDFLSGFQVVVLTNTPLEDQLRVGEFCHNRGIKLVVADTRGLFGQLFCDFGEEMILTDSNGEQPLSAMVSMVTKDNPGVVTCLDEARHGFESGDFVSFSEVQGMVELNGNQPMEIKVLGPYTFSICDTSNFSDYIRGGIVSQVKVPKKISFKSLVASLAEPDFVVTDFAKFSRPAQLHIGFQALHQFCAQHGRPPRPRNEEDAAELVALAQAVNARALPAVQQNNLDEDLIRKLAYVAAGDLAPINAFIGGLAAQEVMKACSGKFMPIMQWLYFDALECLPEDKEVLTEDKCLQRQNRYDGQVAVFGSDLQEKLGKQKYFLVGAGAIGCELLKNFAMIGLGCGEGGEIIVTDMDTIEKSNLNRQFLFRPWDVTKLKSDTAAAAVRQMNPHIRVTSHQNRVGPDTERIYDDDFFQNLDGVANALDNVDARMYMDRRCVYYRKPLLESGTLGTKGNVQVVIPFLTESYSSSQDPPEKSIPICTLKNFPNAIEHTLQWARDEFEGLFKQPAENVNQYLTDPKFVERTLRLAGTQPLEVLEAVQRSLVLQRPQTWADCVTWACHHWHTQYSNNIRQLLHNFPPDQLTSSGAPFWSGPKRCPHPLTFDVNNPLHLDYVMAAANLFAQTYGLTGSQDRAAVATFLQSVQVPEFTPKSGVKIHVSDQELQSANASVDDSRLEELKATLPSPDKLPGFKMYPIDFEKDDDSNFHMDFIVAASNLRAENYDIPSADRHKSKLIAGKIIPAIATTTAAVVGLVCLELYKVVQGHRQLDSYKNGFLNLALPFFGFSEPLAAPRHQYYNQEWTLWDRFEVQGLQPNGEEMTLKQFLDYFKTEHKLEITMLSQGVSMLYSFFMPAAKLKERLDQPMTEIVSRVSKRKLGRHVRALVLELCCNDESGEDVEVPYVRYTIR
Experiment: Inhibition of human recombinant E1-ubiquitin complex formation

**Q.** How did the IC50 turn out when `CC(C)(O)/C=C/[C@@]12[C@H]3[C@@H](O)[C@@H]4O[C@@H]4[C@]1(O)OC(C)(C)[C@@H]2C=C1C(=O)[C@H]2O[C@H]2[C@H](O)[C@H]13` [PANEPOPHENANTHRIN] was run?
**A.** Its IC50 is 40.4 µM.
